Reference: BindingDB's records for doi:10.1021/jm00006a008 (Glaxo Research Institute, 1995)

Test: Inhibitory concentration against topoisomerase I obtained from calf thymus

**Q.** Which IC50 does the source give for `CC[C@]1(O)C(=O)OCc2c1cc1n(c2=O)Cc2c-1nc1ccc(F)cc1c2C(=O)O` [(R)-4-Ethyl-9-fluoro-4-hydroxy-3,13-dioxo-3,4,12,13-tetrahydro-1H-2-oxa-6,12a-diaza-dibenzo[b,h]fluorene-11-carboxylic acid] here?
**A.** Its IC50 is 3.1 µM.
